The supplement of paper PMC12076712

Legend:
Test in all cases: pIC50, kinobeads binding competition
Conditions in all cases: cell material: Jurkat lysate
ITK = target: T1, ITK (UniProt Q08881)
T1 sequence (whole entry): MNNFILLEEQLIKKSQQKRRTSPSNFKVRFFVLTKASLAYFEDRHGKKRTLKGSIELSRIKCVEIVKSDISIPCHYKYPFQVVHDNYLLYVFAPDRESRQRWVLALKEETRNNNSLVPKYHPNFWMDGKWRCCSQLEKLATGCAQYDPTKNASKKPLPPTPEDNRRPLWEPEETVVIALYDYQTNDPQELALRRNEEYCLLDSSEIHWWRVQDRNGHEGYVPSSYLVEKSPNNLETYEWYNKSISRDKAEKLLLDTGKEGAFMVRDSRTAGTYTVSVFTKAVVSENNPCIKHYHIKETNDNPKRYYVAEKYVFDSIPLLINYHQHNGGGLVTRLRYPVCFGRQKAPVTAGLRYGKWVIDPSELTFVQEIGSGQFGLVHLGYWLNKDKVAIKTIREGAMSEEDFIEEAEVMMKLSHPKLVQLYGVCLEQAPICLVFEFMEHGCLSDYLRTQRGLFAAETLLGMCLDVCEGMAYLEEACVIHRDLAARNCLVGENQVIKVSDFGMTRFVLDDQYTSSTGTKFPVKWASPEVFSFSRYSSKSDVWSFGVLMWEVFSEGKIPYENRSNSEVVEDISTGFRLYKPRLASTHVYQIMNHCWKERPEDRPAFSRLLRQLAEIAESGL

MAST1 = MAST1 (UniProt Q9Y2H9)
Chain of MAST1 (Q9Y2H9 whole entry, looked up): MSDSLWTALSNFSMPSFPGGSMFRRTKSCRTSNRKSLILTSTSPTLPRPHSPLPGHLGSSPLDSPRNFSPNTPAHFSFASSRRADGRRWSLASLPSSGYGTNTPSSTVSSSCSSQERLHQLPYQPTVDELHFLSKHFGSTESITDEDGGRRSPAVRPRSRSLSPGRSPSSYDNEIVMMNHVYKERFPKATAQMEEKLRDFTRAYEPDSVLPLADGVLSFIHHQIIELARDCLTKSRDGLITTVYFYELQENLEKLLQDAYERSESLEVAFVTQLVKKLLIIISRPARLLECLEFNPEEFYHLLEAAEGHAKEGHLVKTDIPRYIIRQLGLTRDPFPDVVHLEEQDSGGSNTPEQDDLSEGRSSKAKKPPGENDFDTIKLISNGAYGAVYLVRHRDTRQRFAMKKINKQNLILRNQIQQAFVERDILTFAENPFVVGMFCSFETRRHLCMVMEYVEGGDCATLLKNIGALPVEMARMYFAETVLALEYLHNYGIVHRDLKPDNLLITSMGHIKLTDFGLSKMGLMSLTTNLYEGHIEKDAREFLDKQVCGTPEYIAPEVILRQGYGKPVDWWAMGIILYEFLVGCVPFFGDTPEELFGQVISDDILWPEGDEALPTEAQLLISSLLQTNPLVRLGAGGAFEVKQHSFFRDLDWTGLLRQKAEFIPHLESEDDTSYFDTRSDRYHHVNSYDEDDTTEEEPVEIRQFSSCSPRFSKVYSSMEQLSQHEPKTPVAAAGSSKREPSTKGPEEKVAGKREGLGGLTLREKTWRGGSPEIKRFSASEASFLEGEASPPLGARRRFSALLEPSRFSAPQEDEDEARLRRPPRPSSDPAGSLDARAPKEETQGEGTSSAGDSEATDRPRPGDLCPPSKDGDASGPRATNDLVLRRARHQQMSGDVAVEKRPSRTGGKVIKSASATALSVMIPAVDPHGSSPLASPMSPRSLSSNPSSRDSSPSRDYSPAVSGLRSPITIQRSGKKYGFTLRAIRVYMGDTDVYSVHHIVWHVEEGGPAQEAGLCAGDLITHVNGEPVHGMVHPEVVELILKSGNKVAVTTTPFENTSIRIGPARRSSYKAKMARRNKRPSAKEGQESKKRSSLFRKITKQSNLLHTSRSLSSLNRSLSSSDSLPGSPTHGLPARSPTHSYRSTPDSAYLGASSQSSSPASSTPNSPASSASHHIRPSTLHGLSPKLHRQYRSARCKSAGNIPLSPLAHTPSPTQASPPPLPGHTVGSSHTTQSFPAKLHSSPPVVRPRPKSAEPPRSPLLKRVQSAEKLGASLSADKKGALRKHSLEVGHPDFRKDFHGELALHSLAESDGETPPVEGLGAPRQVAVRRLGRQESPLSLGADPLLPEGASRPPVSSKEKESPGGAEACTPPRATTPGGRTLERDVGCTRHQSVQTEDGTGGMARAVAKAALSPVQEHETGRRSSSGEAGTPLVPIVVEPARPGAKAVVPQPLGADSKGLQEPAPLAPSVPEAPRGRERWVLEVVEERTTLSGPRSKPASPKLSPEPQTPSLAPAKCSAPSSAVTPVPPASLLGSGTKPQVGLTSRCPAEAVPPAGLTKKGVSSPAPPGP

PRKCH = PRKCH (UniProt P24723)
Chain of PRKCH (P24723 whole entry, looked up): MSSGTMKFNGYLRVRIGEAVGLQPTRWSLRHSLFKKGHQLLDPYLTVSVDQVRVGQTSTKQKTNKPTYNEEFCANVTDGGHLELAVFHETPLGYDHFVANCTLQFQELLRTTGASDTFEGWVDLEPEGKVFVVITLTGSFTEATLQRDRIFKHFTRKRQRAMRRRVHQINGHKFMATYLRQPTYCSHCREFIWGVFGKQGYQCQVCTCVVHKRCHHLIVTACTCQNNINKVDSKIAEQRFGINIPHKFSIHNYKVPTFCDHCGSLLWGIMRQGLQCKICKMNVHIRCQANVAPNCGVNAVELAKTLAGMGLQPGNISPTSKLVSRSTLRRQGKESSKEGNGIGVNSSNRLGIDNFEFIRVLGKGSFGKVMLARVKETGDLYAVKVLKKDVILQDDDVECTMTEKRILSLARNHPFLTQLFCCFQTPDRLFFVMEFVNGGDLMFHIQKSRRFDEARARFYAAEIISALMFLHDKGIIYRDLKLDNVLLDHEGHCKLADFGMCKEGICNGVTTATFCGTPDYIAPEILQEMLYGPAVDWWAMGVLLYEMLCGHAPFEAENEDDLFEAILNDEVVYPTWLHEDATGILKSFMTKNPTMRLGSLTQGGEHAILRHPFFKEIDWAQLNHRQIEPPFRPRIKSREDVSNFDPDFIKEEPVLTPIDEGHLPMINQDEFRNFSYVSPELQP

STK33 = STK33 (UniProt Q9BYT3)
Chain of STK33 (Q9BYT3 whole entry, looked up): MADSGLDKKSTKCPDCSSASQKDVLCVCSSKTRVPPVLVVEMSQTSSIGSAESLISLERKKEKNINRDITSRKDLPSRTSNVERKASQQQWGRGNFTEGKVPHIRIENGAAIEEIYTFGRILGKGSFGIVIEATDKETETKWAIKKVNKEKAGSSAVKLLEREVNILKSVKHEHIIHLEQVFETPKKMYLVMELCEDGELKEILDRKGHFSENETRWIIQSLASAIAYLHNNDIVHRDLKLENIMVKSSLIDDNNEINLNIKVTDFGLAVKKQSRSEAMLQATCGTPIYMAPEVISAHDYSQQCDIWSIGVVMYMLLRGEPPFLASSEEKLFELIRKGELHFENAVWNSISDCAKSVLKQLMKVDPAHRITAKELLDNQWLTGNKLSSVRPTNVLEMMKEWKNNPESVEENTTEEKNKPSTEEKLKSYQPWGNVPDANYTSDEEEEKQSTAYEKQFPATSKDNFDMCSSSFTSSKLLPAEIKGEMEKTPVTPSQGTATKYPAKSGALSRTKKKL

ULK1 = target: T2, ULK1 (UniProt O75385)
T2 sequence (whole entry): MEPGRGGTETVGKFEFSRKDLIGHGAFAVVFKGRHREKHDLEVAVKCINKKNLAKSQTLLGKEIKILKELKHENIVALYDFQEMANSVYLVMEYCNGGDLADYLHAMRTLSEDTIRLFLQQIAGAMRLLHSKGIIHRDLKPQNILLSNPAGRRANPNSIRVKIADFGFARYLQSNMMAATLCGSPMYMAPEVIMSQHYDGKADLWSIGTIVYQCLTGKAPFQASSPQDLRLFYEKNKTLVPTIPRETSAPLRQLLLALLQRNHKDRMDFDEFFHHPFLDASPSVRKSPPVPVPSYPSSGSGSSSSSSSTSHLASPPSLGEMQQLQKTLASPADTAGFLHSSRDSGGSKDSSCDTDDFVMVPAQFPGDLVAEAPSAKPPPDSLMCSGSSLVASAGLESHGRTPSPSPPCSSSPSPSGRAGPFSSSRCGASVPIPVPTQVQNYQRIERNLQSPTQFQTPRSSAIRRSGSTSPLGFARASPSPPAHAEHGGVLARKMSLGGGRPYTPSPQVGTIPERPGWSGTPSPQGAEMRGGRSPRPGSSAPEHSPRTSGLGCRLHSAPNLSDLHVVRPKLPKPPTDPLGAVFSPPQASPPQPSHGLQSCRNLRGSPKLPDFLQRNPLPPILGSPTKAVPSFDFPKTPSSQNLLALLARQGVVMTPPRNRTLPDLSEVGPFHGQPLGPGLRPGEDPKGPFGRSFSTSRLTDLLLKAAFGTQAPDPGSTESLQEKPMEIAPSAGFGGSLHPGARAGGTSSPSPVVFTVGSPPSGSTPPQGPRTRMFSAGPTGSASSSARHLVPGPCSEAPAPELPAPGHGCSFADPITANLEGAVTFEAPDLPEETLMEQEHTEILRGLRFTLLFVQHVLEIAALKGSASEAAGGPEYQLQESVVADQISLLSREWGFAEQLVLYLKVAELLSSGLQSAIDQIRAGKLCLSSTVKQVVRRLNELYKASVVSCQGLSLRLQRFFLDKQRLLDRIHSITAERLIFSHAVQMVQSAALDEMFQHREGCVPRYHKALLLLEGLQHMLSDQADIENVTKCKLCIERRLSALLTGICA

ULK3 = target: T3, ULK3 (UniProt Q6PHR2)
T3 sequence (whole entry): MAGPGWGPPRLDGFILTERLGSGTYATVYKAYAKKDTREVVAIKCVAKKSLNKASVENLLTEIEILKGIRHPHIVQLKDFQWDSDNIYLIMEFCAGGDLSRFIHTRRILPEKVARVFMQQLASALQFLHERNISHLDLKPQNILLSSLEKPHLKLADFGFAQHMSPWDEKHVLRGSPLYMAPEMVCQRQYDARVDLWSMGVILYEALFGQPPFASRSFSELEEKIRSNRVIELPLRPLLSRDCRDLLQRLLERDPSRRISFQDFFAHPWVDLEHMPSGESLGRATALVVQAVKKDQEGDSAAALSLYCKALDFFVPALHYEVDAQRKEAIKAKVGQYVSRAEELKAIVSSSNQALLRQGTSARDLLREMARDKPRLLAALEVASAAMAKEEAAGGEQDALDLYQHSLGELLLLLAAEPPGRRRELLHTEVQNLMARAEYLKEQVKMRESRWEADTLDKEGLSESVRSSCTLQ

UniProt O15530 = target: T4, UniProt O15530
T4 sequence (whole entry): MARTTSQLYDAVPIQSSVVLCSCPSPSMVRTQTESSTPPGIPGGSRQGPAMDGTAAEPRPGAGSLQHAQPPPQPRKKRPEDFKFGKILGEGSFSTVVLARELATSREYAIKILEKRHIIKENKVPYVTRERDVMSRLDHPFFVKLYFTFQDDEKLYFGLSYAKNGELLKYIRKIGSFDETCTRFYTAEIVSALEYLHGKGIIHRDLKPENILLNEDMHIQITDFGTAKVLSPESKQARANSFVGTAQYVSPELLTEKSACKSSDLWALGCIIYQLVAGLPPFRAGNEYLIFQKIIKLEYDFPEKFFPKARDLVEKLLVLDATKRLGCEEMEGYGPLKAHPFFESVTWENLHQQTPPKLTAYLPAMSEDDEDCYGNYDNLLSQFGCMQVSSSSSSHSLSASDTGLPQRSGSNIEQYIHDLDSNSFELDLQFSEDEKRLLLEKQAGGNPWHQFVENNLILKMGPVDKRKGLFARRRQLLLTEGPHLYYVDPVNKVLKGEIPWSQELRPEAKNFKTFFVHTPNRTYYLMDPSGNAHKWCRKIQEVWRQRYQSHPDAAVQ

Measured: pIC50

CCc1cnn2c(NCc3ccc[n+]([O-])c3)cc(N3CCCC[C@H]3CCO)nc12 [dinaciclib]
< 4.52: all assays above
